For 36 compounds, Activity and IC50 results are on record in ChEMBL document CHEMBL1671721, “Chemical validation of phosphodiesterase C as a chemotherapeutic target in Trypanosoma cruzi, the etiological agent of Chagas' disease” (Antimicrob Agents Chemother, 2010).

The nature of data set [1]: Cytotoxicity against rat L6E9 myoblasts at 1 to 25 uM.
Data set [2] deals with Trypanosoma cruzi. Kind of data set: Antimicrobial activity against Trypanosoma cruzi Y infected in rat L6E9 myoblasts assessed as inhibition of [5,6-3H]uracil incorporation after 3 days postinfection by scintillation counter. The data set is classed as functional, organism-based.
In data set [3] the target is T1, Cyclic nucleotide specific phosphodiesterase (Trypanosoma cruzi, UniProt Q53I59).
T1 sequence (Q53I59 whole entry): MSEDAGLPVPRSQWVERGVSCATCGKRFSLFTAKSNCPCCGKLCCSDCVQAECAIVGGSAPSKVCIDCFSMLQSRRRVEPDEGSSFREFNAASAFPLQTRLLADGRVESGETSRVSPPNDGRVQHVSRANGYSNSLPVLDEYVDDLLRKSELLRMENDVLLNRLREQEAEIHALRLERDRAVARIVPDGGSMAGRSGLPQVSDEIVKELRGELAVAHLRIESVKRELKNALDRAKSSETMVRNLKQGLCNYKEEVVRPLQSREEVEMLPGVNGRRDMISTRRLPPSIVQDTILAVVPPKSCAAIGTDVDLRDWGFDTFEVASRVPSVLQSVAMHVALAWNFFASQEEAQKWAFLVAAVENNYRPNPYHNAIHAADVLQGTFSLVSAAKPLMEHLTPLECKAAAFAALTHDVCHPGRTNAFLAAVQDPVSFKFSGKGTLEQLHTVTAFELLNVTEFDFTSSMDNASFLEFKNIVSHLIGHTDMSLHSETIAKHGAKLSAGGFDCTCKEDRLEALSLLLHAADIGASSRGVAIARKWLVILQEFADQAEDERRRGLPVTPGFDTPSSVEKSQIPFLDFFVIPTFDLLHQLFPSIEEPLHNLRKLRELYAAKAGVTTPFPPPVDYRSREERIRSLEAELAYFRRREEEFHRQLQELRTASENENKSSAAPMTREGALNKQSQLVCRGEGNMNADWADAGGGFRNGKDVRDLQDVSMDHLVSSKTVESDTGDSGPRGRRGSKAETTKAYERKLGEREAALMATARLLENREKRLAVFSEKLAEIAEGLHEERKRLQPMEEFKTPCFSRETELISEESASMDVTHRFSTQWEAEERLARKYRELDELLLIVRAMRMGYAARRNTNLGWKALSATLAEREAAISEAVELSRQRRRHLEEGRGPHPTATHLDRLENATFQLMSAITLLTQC
As to the kind of experiment: Inhibition of Trypanosoma cruzi Y PDEC after 30 mins.

Data set [4] addresses Phosphodiesterase 4 (Homo sapiens, UniProt P27815+Q08499+Q07343+Q08493). As to the kind of experiment: Inhibition of human PDE4 after 30 mins. The class given is protein assay.

With `O=C1c2ccccc2S(=O)(=O)N1Cc1nc2ccccc2s1`, the Activity result in data set [1] is “Non-toxic”. For the same compound, the IC50 in data set [2] worked out at 3.3 µM; in data set [3], 5.5 µM.
Regarding `C=CCn1c(=S)sc2c(Sc3nnc(-c4ccco4)o3)ncnc21`, in data set [1], the Activity entry is reported as “Non-toxic”. Also, the figures for the IC50 in data set [2] and in data set [3] were 5.4 µM and 7 µM, respectively.
As to `O=C1CC(Sc2ccc(Cl)cc2)C(=O)N1Cc1ccncc1` (stereo not drawn), the Activity result in data set [1] was “Non-toxic”. Also, the values for the IC50 in data set [2] and in data set [3] were > 10 µM and 10 µM, respectively.
For `CCCCC(=O)c1ccc(OC)c(OC2CCOCC2)c1`, the Activity result in data set [1] was “Non-toxic”. Also, the IC50 was 2.1 µM in data set [2], 0.72 µM in data set [4] and > 10 µM in data set [3].
The corresponding values for `CCCC(O)(C(=O)c1ccc(OC(F)F)c(Oc2ccccn2)c1)c1cnc2ccccc2c1` (stereo not drawn) are “Non-toxic”, 3.8 µM, 6 µM and 3.9 µM.
For the compound `CCOC(=O)c1nc(C)nc(Sc2nnc(-c3ccccc3)[nH]2)c1C`, the Activity result in data set [1] is listed as “Non-toxic”. For the same compound, the half-maximal inhibitory concentration (IC50) in data set [2] worked out at 6.4 µM; in data set [3], 4.6 µM.
Consider `O=S(=O)(Cc1ccco1)Cc1nc(-c2ccccc2)cs1`, for which the Activity result in data set [1] was “Non-toxic”. The IC50 in data set [2] was 25 µM; in data set [3], 3.8 µM.
Consider `O=C(CC1CCCCC1)c1ccc(OC(F)F)c(OC(F)F)c1`, for which the Activity entry in data set [1] is recorded as “Non-toxic”. Also, the IC50 in data set [2] worked out at 5.7 µM; in data set [4] it was 5.2 µM; in data set [3], 5.4 µM.
With `O=S(=O)(Cc1noc(-c2cccs2)n1)c1ccc(F)cc1`, in data set [1], the Activity result is on record as “Non-toxic”. The 50% inhibitory concentration (IC50) in data set [2] and in data set [3] was > 10 µM throughout.
Regarding `Fc1ccccc1Nc1ncnc2c1nnn2Cc1ccccc1`, in data set [1], the Activity result was “Non-toxic”. In addition, the concentration for half-maximal inhibition (IC50) in data set [2] and in data set [3] was > 10 µM in each case.
On to `COc1ccc(C(=O)CCc2ccccc2)cc1OC1CCOC1` (stereo not drawn), for which the Activity result in data set [1] is listed as “Non-toxic”. Besides, the concentration for half-maximal inhibition (IC50) is 5.6 µM in data set [2], 2.3 µM in data set [4] and > 10 µM in data set [3].
The corresponding values for `O=C(CC1CCCCC1)c1ccc(OC(F)F)c(OC2CCOC2)c1` (stereo not drawn) are “Non-toxic”, 4.4 µM, 0.667 µM and 2.5 µM.
On to `CCCC(c1ccc(Oc2ccccn2)c(OC)c1)c1cnc2ccccc2c1` (stereo not drawn), for which, in data set [1], the Activity entry is “Non-toxic”. Besides, the results for the IC50 in data set [2], in data set [4] and in data set [3] were 1.9 µM, 6 µM and 3.3 µM, respectively.
Regarding `O=C(CCc1ccccc1)c1ccc(OC(F)F)c(OC(F)F)c1`, the Activity entry in data set [1] is given as “Non-toxic”. Also, the concentration for half-maximal inhibition (IC50) in data set [2] turned out to be 2.3 µM; in data set [4], 0.082 µM; in data set [3], 2.2 µM.
With `COC(OC)c1ccc(C#N)c(SCC(=O)c2ccc(Cl)cc2)n1`, the Activity result in data set [1] was “Non-toxic”. Moreover, the 50% inhibitory concentration (IC50) in data set [2] and in data set [3] was > 10 µM throughout.
On to `O=C(NCc1csc(-c2cccs2)n1)C1=Cc2ccccc2OC1` [SCR 01311], for which the Activity entry in data set [1] is listed as “Non-toxic”. In addition, the IC50 is 25 µM in data set [2] and 10 µM in data set [3].
Consider `CCCC(=O)c1ccc(OC2CCOCC2)c(OC)c1`, for which, in data set [1], the Activity result is “Non-toxic”. Besides, the IC50 in data set [2] came out at 4 µM; in data set [4], 60 µM; in data set [3], 4 µM.
Turning to `O=C(CCCc1ccccc1)c1ccc(OC(F)F)c(OC2CCOC2)c1` (stereo not drawn), the Activity result in data set [1] is on record as “Non-toxic”. Also, the IC50 came out at 3.1 µM in data set [2], 0.626 µM in data set [4] and 3.2 µM in data set [3].
For the compound `O=Cc1ccc(OC(F)F)c(O)c1`, the Activity entry in data set [1] is “Non-toxic”. In addition, the half-maximal inhibitory concentration (IC50) is 11 µM in data set [2] and > 10 µM in data set [3].
In the case of `COc1ccc(C(=O)CC2CCCCC2)cc1OC1CCOC1` (stereo not drawn), the Activity entry in data set [1] is “Non-toxic”. Further, the results for the IC50 in data set [2], in data set [4] and in data set [3] were 1.7 µM, 2.6 µM and 4.9 µM, respectively.
As for `CCCCC(=O)c1ccc(OC2CCN(C(=O)OC(C)(C)C)CC2)c(OC)c1`, the Activity result in data set [1] was “Non-toxic”. The half-inhibitory concentration (IC50) in data set [2] stood at 3.8 µM; in data set [4], 93 µM; in data set [3], 3.1 µM.
Consider `CCCC(=O)c1ccc(OC2CCOC2)c(OC)c1` (stereo not drawn), for which the Activity result in data set [1] is given as “Non-toxic”. Moreover, the IC50 in data set [2] amounted to 3.7 µM; in data set [4] it was 24 µM; in data set [3] it was 5.6 µM.
As to `CCCC(O)c1ccc(OC)c(OC2CCOC2)c1` (stereo not drawn), the Activity result in data set [1] is reported as “Non-toxic”. The 50% inhibitory concentration (IC50) is 471 µM in data set [2], 100 µM in data set [4] and > 10 µM in data set [3].
The matching figures for `O=C(CCCc1ccccc1)c1ccc(OC(F)F)c(OC(F)F)c1`: “Non-toxic”, 7.7 µM, 44 µM and 2.5 µM.
Take `CCCC(=O)c1ccc(OC(F)F)c(Oc2ccccn2)c1`: the Activity result in data set [1] is listed as “Non-toxic”. Moreover, the concentration for half-maximal inhibition (IC50) in data set [2] worked out at 10.3 µM; in data set [4], 40 µM; in data set [3] it was 3.5 µM.
For the compound `CC(C)CC(=O)c1ccc(OC(F)F)c(OC2CCCC2)c1`, the Activity result in data set [1] was “Non-toxic”. Besides, the IC50 in data set [2] is 3.6 µM; in data set [4], 0.022 µM; in data set [3], 3.2 µM.
In the case of `O=C(SCc1ccco1)c1csc(C2COc3ccccc3O2)n1` (stereo not drawn), in data set [1], the Activity result was “Non-toxic”. The IC50 in data set [2] was 25 µM; in data set [3] it was > 10 µM.
The matching figures for `CC(C)(C)c1cc2ncnc(NNC(=O)c3cccs3)c2s1` [GK03671]: “Non-toxic”, 4.8 µM and 6.3 µM.
In the case of `O=C(COc1ncnc2cc(Cl)ccc12)Nc1ccccc1Cl`, the Activity result in data set [1] is on record as “Non-toxic”. The concentration for half-maximal inhibition (IC50) in data set [2] and in data set [3] was > 10 µM in each case.
Regarding `O=C(CN1CCc2ccccc21)Nc1nnc(-c2cccs2)s1`, the Activity result in data set [1] was “Non-toxic”. The half-inhibitory concentration (IC50) in data set [2] and in data set [3] was > 10 µM in each case.
As to `CCCC(=O)c1ccc(OC)c(OC2CCOC2)c1` (stereo not drawn), the Activity result in data set [1] is given as “Non-toxic”. In addition, the IC50 in data set [2] is 68 µM; in data set [4], 0.43 µM; in data set [3], > 10 µM.
Take `O=C(CCc1ccccc1)c1ccc(OC(F)F)c(OC2CCOC2)c1` (stereo not drawn): the Activity result in data set [1] was “Non-toxic”. The results for the concentration for half-maximal inhibition (IC50) in data set [2], in data set [4] and in data set [3] were 3.1 µM, 0.18 µM and 2.5 µM, respectively.
For the compound `COc1ccc(C(=O)CCC2CCCCC2)cc1OC1CCOC1` (stereo not drawn), the Activity entry in data set [1] is on record as “Non-toxic”. Moreover, the half-maximal inhibitory concentration (IC50) in data set [2] is 6.1 µM; in data set [4] it was 1.9 µM; in data set [3], > 10 µM.
As to `COc1ccc(C=O)cc1OC1CCOC1` (stereo not drawn), in data set [1], the Activity result was “Non-toxic”. Moreover, the IC50 in data set [2] was 122 µM; in data set [3], > 10 µM.
For the compound `CCCC(O)c1ccc(OC)c(OC2CCOCC2)c1` (stereo not drawn), the Activity entry in data set [1] is reported as “Non-toxic”. The IC50 was 10 µM in data set [2], 100 µM in data set [4] and > 10 µM in data set [3].
With `NNC(=O)c1csc(COc2ccc(C3SCCS3)cc2)n1`, the Activity entry in data set [1] is listed as “Non-toxic”. Moreover, the IC50 in data set [2] and in data set [3] was > 10 µM throughout.

For orientation: IC50 means the concentration at which inhibition is half-maximal.
